Reference: US10124009B2, “Bromodomain inhibitors” (Tensha Therapeutics, Inc., priority 2014, dated 2018)

How the values were obtained:
RIN-m = assay: Cell Titer-Glo rat insulinoma cell assay, RIN-m; format: cell-based; conditions: cell proliferation, 168-192 h culture
Protocol: (§1) A Cell Titer-Glo assay was utilized to test the sensitivity of four rat insulinoma (RIN) cell lines, RIN-14B, RIN-m5F, RIN-m, and RIN-5, to Compound 1 and Compound 2.
(§2) Cells were seeded at 5000 cells per well in a 96-well microculture plate in a total volume of 100 μl/well and incubated for 24 hours. 100 μl of 2× testing compounds (Compound 1 or Compound 2), serially diluted 1:4 were added to each well. The concentrations tested for Compound 1 and Compound 2 were 20 μM, 5 μM, 1.25 μM, 0.313 μM, 0.0781 μM, 0.0195 μM, 0.00488 μM, 0.00122 μM, 0.000305 μM, and 0.0000763 μM. After 168-192 total hours of culture 100 μl of media was removed from each well and 50 μl of Cell Titer-Glo (Promega #G7571) was added to each well. The plate was shaken for 2 minutes and allowed to equilibrate for 10 minutes. Luminescence was measured on a Tecan GENios microplate reader. Percent inhibition of cell proliferation was calculated relative to untreated control wells. All tests were performed in triplicate or quadruplicates at each concentration level. IC50 values were calculated using Prism 6.00 curve-fitting with a four parameter-logistic equation.

[1] = test system: rat insulinoma (RIN) cell lines; assay: Cell Titer-Glo rat insulinoma cell assay, all four cell lines; format: cell-based; conditions: all cell lines (RIN-14B, RIN-m5F, RIN-m, RIN-5)
Protocol: as §1, §2

BRD4(2) = BRD4(2) (Homo sapiens (Human), UniProt O60885); assay: BROMOscan binding assay BRD4(2)
Protocol: (§3) (S)-JQ (S8) was used as a positive control.
(§4) T7 phage strains displaying bromodomains were grown in parallel in 24-well blocks in an E. coli host derived from the BL21 strain. E. coli were grown to log-phase and infected with T7 phage from a frozen stock (multiplicity of infection=0.4) and incubated with shaking at 32° C. until lysis (90-150 minutes). The lysates were centrifuged (5,000×g) and filtered (0.2 μm) to remove cell debris. […] The liganded beads were blocked with excess biotin and washed with blocking buffer (SeaBlock (Pierce), 1% BSA, 0.05% Tween 20, 1 mM DTT) to remove unbound ligand and to reduce non-specific phage binding.
(§5) Test compounds were prepared as 1000× stocks in 100% DMSO and subsequently serially diluted 1:10 in monoethylene glycol (MEG) to create stocks at 100× the screening concentration (resulting stock solution is 10% DMSO/90% MEG). The compounds were then diluted directly into the assays such that the final concentration of DMSO and MEG were 0.1% and 0.9%, respectively. All reactions were performed in polystyrene 96-well plates in a final volume of 0.135 ml. […] The bromodomain concentration in the eluates was measured by qPCR.
(§6) Most Kds were determined using a compound top concentration=10,000 nM.
(§7) Binding constants (Kds) were calculated with a standard dose-response curve using the Hill equation. The Hill Slope was set to −1. Curves were fitted using a non-linear least square fit with the Levenberg-Marquardt algorithm. […] The amount of bromodomain was measured by qPCR (y-axis) and was plotted against the corresponding compound concentration in nM in log 10 scale.

RIN-14B = assay: Cell Titer-Glo rat insulinoma cell assay, RIN-14B; format: cell-based; conditions: cell proliferation, 168-192 h culture
Protocol: as §1, §2

RIN-5F = assay: Cell Titer-Glo rat insulinoma cell assay, RIN-5F; format: cell-based; conditions: cell proliferation, 168-192 h culture
Protocol: as §1, §2

[2] = IV and oral pharmacokinetics in male Sprague-Dawley rats; format: in vivo, rat; conditions: for exposures following IV administration: IV 1 mg/kg; for Extrapolated / AUC(0-inf) / AUC(0-t) / Cmax / Tmax / half-life: rat plasma; for bioavailability / AUC(0-inf) / AUC(0-t) / Cmax / Tmax / half-life: male, Sprague-Dawley; for bioavailability: rat, plasma, PO 5 mg/kg, read-out: oral bioavailability F
Protocol: Male Sprague-Dawley (˜250-325 g) with indwelling jugular vein cannulae (JVC) were purchased and allowed to acclimate to the test facility for a minimum of 2 days. All animals were fasted overnight prior to dosing. Oral formulations were prepared by weighing the appropriate amount of the compound into formulation vial and adding the appropriate volume of DMSO (10%), Solutol HS-15 (10%), and saline (80%) (See Table 0 for compound amounts and concentrations of all formulations). Once the test compound was in the vial, DMSO was added and the vial was vortexed for 1-2 minutes and sonicated for 3 minutes. The appropriate volume of Solutol HS-15 was then added to formulation vial and the vial was vortexed for 1-2 minutes and sonicated for 2 minutes. Saline was added and the pH adjusted to about 6.8-7.4, and the vial was vortexed for 2 minutes.
Oral dosing was performed using a ball-tipped gavage needle. […] No abnormalities were observed during the course of the study. Serial samples were collected by via tail snip, or facial vein. Blood samples were collected into NaF Na2EDTA tubes and stored on wet ice until processed to plasma by centrifugation (3500 rpm for 10 minutes at 5° C.) within 30 minutes of collection. Plasma samples were transferred into matrix tubes and stored at −80° C. until transferred to analytical chemistry for analysis. The cellular fraction was discarded. Dose formulation and plasma samples were analyzed for parent drug and metabolite by Agilux Laboratories via LC/MS/MS using an RGA I assay.

RIN-m5F = assay: Cell Titer-Glo rat insulinoma cell assay, RIN-m5F; format: cell-based; conditions: cell proliferation, 168-192 h culture
Protocol: as §1, §2

BRD4(1) = BRD4(1) (Homo sapiens (Human), UniProt O60885); assay: BROMOscan binding assay BRD4(1)
Protocol: as §3, §4, §5, §6, §7

[3] = Caco-2 permeability assay; conditions: human; for recovery at 2 h, 10 μM: Caco-2; for Papp A→B at 2 h, 10 μM: Caco-2, Mean Papp, Assay Conc. 10 μM
Caco-2 = Caco-2 permeability assay; conditions: Assay Conc. 10 μM
in vitro = conditions: human
[4] = PO Dose (5 mg/kg) vs IV (1 mg/kg)

Row | SMILES | Kd (BRD4(2)) | Kd values / in vitro binding activity to BRD4(2), in words (BRD4(2)) | exposures following IV administration [2] | Extrapolated ([2]; IV Dose (1 mg/kg)) | bioavailability [2] | AUC(0-inf) ([2]; IV Dose (1 mg/kg)) | AUC(0-t) ([2]; IV Dose (1 mg/kg)) | Cmax ([2]; IV Dose (1 mg/kg)) | Tmax ([2]; IV Dose (1 mg/kg)) | half-life ([2]; IV Dose (1 mg/kg)) | AUC(0-t) ([2]; PO Dose (5 mg/kg)) | Cmax ([2]; PO Dose (5 mg/kg)) | Tmax ([2]; PO Dose (5 mg/kg)) | Kd (BRD4(1)) | Kd values / in vitro binding activity to BRD4(1), in words (BRD4(1)) | recovery at 2 h, 10 μM [3] | Papp A→B at 2 h, 10 μM [3] | also measured
1 | Cc1sc2c(c1C)C(c1ccc(Cl)cc1)=N[C@@H](CC(=O)OC1CCC(O)CC1)c1nnc(C)n1-2 (stereo partly shown) [Compound 1] | 1.5 nM | low Kd values | detected | 0.41% | > 23% | 1500 ng·h/mL | 1500 ng·h/mL | 1490 ng/mL | 4.98 min | 47.9 min | 2360 ng·h/mL | 619 ng/mL | 60 min | 1.3 nM | low Kd values | 98.5% | 30.7 ×10⁻⁶ cm/s | IC50 (RIN-m): 12.6 nM; IC50 [1]: < 40 nM; IC50 (RIN-14B): 9.3 nM; IC50 (RIN-5F; Rattus norvegicus): 21.6 nM; IC50 (RIN-5F): 19.5 nM; F* ([2]; PO Dose (5 mg/kg) vs IV (1 mg/kg), AUC0-last was used to calculate % F): 31.6%; IC50 (RIN-m5F): 11.3 nM
2 | CNC(=C[N+](=O)[O-])NCCSCc1ccc(CN(C)C)o1 [Ranitidine, reference compound] | – | – | – | – | – | – | – | – | – | – | – | – | – | – | – | – | – | Mean % recovery (Caco-2): 97.8%; Mean Papp, A-B (Caco-2; 2 hours): 0.170 10^−6 cm/s
3 | Cc1sc2c(c1C)C(c1ccc(Cl)cc1)=N[C@@H](CC(=O)OCCO)c1nnc(C)n1-2 [Compound 3] | 1.2 nM | low Kd values | – | – | – | – | – | – | – | – | – | – | – | 1.1 nM | low Kd values | 88.7% | 29.8 ×10⁻⁶ cm/s | –
4 | Cc1sc2c(c1C)C(c1ccc(Cl)cc1)=N[C@@H](CC(=O)OC/C(Br)=C(\Br)CO)c1nnc(C)n1-2 [Compound 7] | 2.1 nM | low Kd values | – | – | – | – | – | – | – | – | – | – | – | 1.5 nM | low Kd values | 76.9% | 31.3 ×10⁻⁶ cm/s | –
5 | Cc1sc2c(c1C)C(c1ccc(Cl)cc1)=N[C@@H](CC(=O)OC(C)(C)C)c1nnc(C)n1-2 [(S)-JQ1, reference compound] | – | – | – | – | – | – | – | – | – | – | – | – | – | – | – | 84.6% | 35.4 ×10⁻⁶ cm/s | –
6 | Cc1sc2c(c1C)C(c1ccc(Cl)cc1)=N[C@@H](CC(=O)OCCCO)c1nnc(C)n1-2 [Compound 4] | 1.3 nM | low Kd values | detected | 0.28% | > 23% | 784 ng·h/mL | 782 ng·h/mL | 1130 ng/mL | 4.98 min | 48.4 min | 813 ng·h/mL | 480 ng/mL | 30 min | 1.1 nM | low Kd values | 99.4% | 35.6 ×10⁻⁶ cm/s | F [2, 4]: 23.4%; AUC(0-inf) ([2]; PO Dose (5 mg/kg)): 918 ng·h/mL; half-life ([2]; PO Dose (5 mg/kg)): 110 min
7 | Cc1sc2c(c1C)C(c1ccc(Cl)cc1)=N[C@@H](CC(=O)OCC(O)CO)c1nnc(C)n1-2 (stereo partly shown) [Compound 6] | – | – | – | – | – | – | – | – | – | – | – | – | – | – | – | 90.8% | 4.74 ×10⁻⁶ cm/s | –
8 | Cc1sc2c(c1C)C(c1ccc(Cl)cc1)=N[C@@H](CC(=O)OCC(C)O)c1nnc(C)n1-2 (stereo partly shown) [Compound 2] | 1.9 nM | low Kd values | detected | 4.62% | > 23% | – | – | 790 ng/mL | 4.98 min | 27.4 min | 2720 ng·h/mL | 820 ng/mL | 60 min | 1.9 nM | low Kd values | 95.3% | 30.6 ×10⁻⁶ cm/s | IC50 (RIN-m): 41.5 nM; IC50 [1]: < 80 nM; IC50 (RIN-14B): 26.5 nM; IC50 (RIN-5F; Rattus norvegicus): 64.5 nM; IC50 (RIN-5F): 59.9 nM; F [2, 4]: 102.2%; AUC(0-inf) ([2]; PO Dose (5 mg/kg)): 3030 ng·h/mL; half-life ([2]; PO Dose (5 mg/kg)): 107 min; IC50 (RIN-m5F): 42.3 nM
9 | Cc1sc2c(c1C)C(c1ccc(Cl)cc1)=N[C@@H](CC(=O)OCCCCCCO)c1nnc(C)n1-2 [Compound 5] | 0.4 nM | low Kd values | detected | 0.75% | – | 516 ng·h/mL | 512 ng·h/mL | 1070 ng/mL | 4.98 min | 18.1 min | 12.1 ng·h/mL | 12.2 ng/mL | 30 min | – | low Kd values | 88.7% | 39.9 ×10⁻⁶ cm/s | –
10 | CC(=O)CC(c1ccccc1)c1c(O)c2ccccc2oc1=O (stereo not shown) [Warfarin] | – | – | – | – | – | – | – | – | – | – | – | – | – | – | – | – | – | recovery at 2 h, 10 μM (in vitro; Caco-2): 99.9%; Papp A→B at 2 h, 10 μM (in vitro; Caco-2, Mean Papp, A-B): 38.8 ×10⁻⁶ cm/s
